In patent publication US20020137929A1, “1 - (3-heterocyclylphenyl) isothiourea, -isourea, -guanidine and -amidine herbicidal agents” (Intellectual Property Department, BASF Aktiengesellschaft, priority 1998, published 2002):

Tests used:
[1] = tested on: CHEAL (Lambsquarters, Common); assay: Preemergence herbicidal evaluation; format: in vivo, Chenopodium album; settings: rated 4-5 weeks after treatment
Outline: (§1)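 Preemergence soil application of compound, sprayed in aqueous acetone at rates equivalent to about 0.0156 to 0.500 kg per hectare onto freshly sown cups. Plant response was judged by eye on a 0-9 scale four to five weeks later.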

[2] = tested on: IPOHE (Morningglory, Ivyleaf); assay: Preemergence herbicidal evaluation; format: in vivo, Ipomoea hederacea; settings: rated 4-5 weeks after treatment
Outline: as §1

[3] = tested on: AMBEL (Ragweed, Common); assay: Preemergence herbicidal evaluation; format: in vivo, Ambrosia artemisifolia; settings: rated 4-5 weeks after treatment
Outline: as §1

[4] = tested on: ECHORC (Watergrass (Calif.)); assay: Postemergence weed control under flooded paddy conditions; format: in vivo, Echinochloa oryzoides; settings: postemergence weeds, 3-4 weeks after treatment
Outline: (§2)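 Containers holding 3–5 cm weeds and rice at 1.5–2.5 leaves are flooded to 1.5–3 cm above soil. Compound in 50/50 v/v aqueous/acetone is then added directly to the water, about 0.0313–0.500 kg/ha. Plants are kept in the greenhouse and rated 0–9 visually at 3–4 weeks.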

[5] = tested on: GALAP (Galium); assay: Postemergence herbicidal evaluation; format: in vivo, Galium aparine; settings: postemergence
Outline: (§3)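 Young plants, roughly two weeks from seeding, receive the active ingredient as a sprayed dispersion (acetone/water 50/50, 0.5% TWEEN 20) at 40 psi. Doses span about 0.0156 to 0.500 kg/ha. A visual score from 0 to 9 compares treated with control plants four to five weeks on.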

[6] = tested on: CYPIR (Rice Flatsedge); assay: Preemergence weed control under flooded paddy conditions; format: in vivo, Cyperus iria; settings: rated 3-4 weeks after treatment
Outline: (§4)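 Silt loam, seeds in top 0.5 cm; flood held 1.5-3 cm; test cpd as acetone/water 50/50 into flood water, ~0.0313-0.500 kg/ha a.i.; greenhouse 3-4 wk; visual 0-9 score vs control.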

[7] = tested on: ORYSAT (Rice, Tebonnet); assay: Preemergence herbicidal evaluation; format: in vivo, Oryza sativa, (L.) Tebonnet; settings: rated 4-5 weeks after treatment
Outline: as §1

[8] = tested on: TRZAWR (Wheat, Winter, cv Riband); assay: Preemergence herbicidal evaluation; format: in vivo, Triticum aestivum; settings: rated 4-5 weeks after treatment
Outline: as §1

[9] = tested on: ZEAMX (Corn, Field); assay: Postemergence herbicidal evaluation; format: in vivo, Zea mays; settings: postemergence
Outline: as §3

[10] = tested on: CYPSE (Flatsedge); assay: Preemergence weed control under flooded paddy conditions; format: in vivo, Cyperus serotinus; settings: rated 3-4 weeks after treatment
Outline: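 Values are visual 0-9 scores against a control for a preemergence application into paddy flood water at about 0.0313 to 0.500 kg/ha. Greenhouse duration was three to four weeks.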

[11] = tested on: CASOB (Sicklepod); assay: Postemergence herbicidal evaluation; format: in vivo, Cassia obtusifolia; settings: postemergence
Outline: as §3

[12] = tested on: CYPSE (Flatsedge); assay: Postemergence weed control under flooded paddy conditions; format: in vivo, Cyperus serotinus; settings: postemergence weeds, 3-4 weeks after treatment
Outline: as §2

[13] = tested on: ECHORC (Watergrass (Calif.)); assay: Preemergence weed control under flooded paddy conditions; format: in vivo, Echinochloa oryzoides; settings: rated 3-4 weeks after treatment
Outline: as §4

[14] = tested on: ZEAMX (Corn, Field); assay: Preemergence herbicidal evaluation; format: in vivo, Zea mays; settings: rated 4-5 weeks after treatment
Outline: as §1

CCOC(=O)CN1C(=O)C(=C(C)C)S/C1=N/c1cc(-n2c(=O)cc(C(F)(F)F)n(C)c2=O)c(F)cc1Cl [Compound 20, Ethyl 2-{{2-chloro-5-[3,6-dihydro-3-methyl-2,6-dioxo-4-(trifluoromethyl)-1(2H)-pyrimidinyl]-4-fluorophenyl}imino}-5-isopropylidene-4-oxo-3-thiazolidineacetate]
CHEAL preemergence herbicidal rating ([1]; rate 0.0625 kg/ha): 9.0
CHEAL preemergence herbicidal rating ([1]; rate 0.1250 kg/ha): 9.0
CHEAL preemergence herbicidal rating ([1]; rate 0.2500 kg/ha): 9.0
IPOHE preemergence herbicidal rating ([2]; rate 0.0625 kg/ha): 0.0
IPOHE preemergence herbicidal rating ([2]; rate 0.1250 kg/ha): 0.0
IPOHE preemergence herbicidal rating ([2]; rate 0.2500 kg/ha): 2.0
AMBEL preemergence herbicidal rating ([3]; rate 0.0625 kg/ha): 0.0
AMBEL preemergence herbicidal rating ([3]; rate 0.1250 kg/ha): 0.0
AMBEL preemergence herbicidal rating ([3]; rate 0.2500 kg/ha): 3.0
Herbicidal rating ECHORC ([4]; rate 0.1160 kg/ha): 7.0
Herbicidal rating ECHORC ([4]; rate 0.2310 kg/ha): 7.0
Herbicidal rating ECHORC ([4]; rate 0.4630 kg/ha): 7.0
GALAP herbicidal rating ([5]; rate 0.0158 kg/ha): 1.0
GALAP herbicidal rating ([5]; rate 0.0315 kg/ha): 2.0
GALAP herbicidal rating ([5]; rate 0.0630 kg/ha): 6.0
Herbicidal rating CYPIR ([6]; 0.1160 kg/ha): 0.0
Herbicidal rating CYPIR ([6]; 0.2310 kg/ha): 0.0
Herbicidal rating CYPIR ([6]; 0.4630 kg/ha): 0.0
ORYSAT preemergence herbicidal rating ([7]; rate 0.0625 kg/ha): 0.0
ORYSAT preemergence herbicidal rating ([7]; rate 0.1250 kg/ha): 0.0
ORYSAT preemergence herbicidal rating ([7]; rate 0.2500 kg/ha): 0.0
TRZAWR preemergence herbicidal rating ([8]; rate 0.0625 kg/ha): 0.0
TRZAWR preemergence herbicidal rating ([8]; rate 0.1250 kg/ha): 0.0
TRZAWR preemergence herbicidal rating ([8]; rate 0.2500 kg/ha): 0.0
ZEAMX herbicidal rating ([9]; rate 0.0158 kg/ha): 4.5
ZEAMX herbicidal rating ([9]; rate 0.0315 kg/ha): 5.0
ZEAMX herbicidal rating ([9]; rate 0.0630 kg/ha): 5.5
Herbicidal rating CYPSE ([10]; 0.1160 kg/ha): 5.0
Herbicidal rating CYPSE ([10]; 0.2310 kg/ha): 5.0
Herbicidal rating CYPSE ([10]; 0.4630 kg/ha): 5.0
CASOB herbicidal rating ([11]; rate 0.0158 kg/ha): 0.0
CASOB herbicidal rating ([11]; rate 0.0315 kg/ha): 0.0
CASOB herbicidal rating ([11]; rate 0.0630 kg/ha): 2.0
Herbicidal rating CYPSE ([12]; rate 0.1160 kg/ha): 5.0
Herbicidal rating CYPSE ([12]; rate 0.2310 kg/ha): 5.0
Herbicidal rating CYPSE ([12]; rate 0.4630 kg/ha): 5.0
Herbicidal rating ECHORC ([13]; 0.1160 kg/ha): 7.0
Herbicidal rating ECHORC ([13]; 0.2310 kg/ha): 7.0
Herbicidal rating ECHORC ([13]; 0.4630 kg/ha): 7.0
ZEAMX preemergence herbicidal rating ([14]; rate 0.0625 kg/ha): 0.0
ZEAMX preemergence herbicidal rating ([14]; rate 0.1250 kg/ha): 0.0
ZEAMX preemergence herbicidal rating ([14]; rate 0.2500 kg/ha): 0.0
